Read-outs that look alike come from different tables or passages of the source.
Key:
Assay type in all cases: cell-based
mOREG = biological target: T1, mOREG (Mus musculus, UniProt Q920P2); test: Ca2+-imaging, control receptor mOREG; conditions: for inhibition at 4 µM: read-out: Percent Inhibition mOREG
T1 sequence (Q920P2 1-313): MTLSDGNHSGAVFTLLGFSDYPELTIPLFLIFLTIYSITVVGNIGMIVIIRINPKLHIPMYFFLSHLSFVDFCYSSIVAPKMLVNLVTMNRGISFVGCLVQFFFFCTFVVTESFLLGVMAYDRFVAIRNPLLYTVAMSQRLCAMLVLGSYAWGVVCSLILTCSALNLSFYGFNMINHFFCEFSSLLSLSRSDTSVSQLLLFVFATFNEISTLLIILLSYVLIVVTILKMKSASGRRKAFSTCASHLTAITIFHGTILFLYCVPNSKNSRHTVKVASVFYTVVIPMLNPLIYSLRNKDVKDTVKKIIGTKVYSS
Procedure: (§1) Stable cell lines were cultured in 10 cm dishes, and confluent cells (70-80%) were trypsinized. 10,000 cells/20 μL were transferred into each well of 384-well plates coated with poly-D-lysine, and cultured for 2 days. For Flip-In T-Rex cells (cell lines expressing Or47a/Or83b and 5HT3), 5 μL of tetracycline (5 μg/mL) were added 1 day before the assay. 20 μL of Ca-4 dye was loaded into each well for 1.5 hr at room temperature in the dark, and the dye-loaded plates were subjected to Ca^2+-imaging using a Hamamatsu FDSS6000 real time fluorescence plate reader. Odorant solutions (9× final concentration) were prepared by dissolving 1M stock solutions into Hank's Buffered Salt Solution (HBSS), and 30 μL of odor solution was transferred to each well in 384-well plates. The last two columns of the plate (32 wells total) were used as control wells as follows: • negative control with HBSS buffer (16 wells) • positive control with ligands (16 wells).
(§2) Compounds ([…] in DMSO) were stored in 384-well plates, and last two columns (32 wells total) contained only DMSO. 200 nL of small compounds were transferred into the odorant plates before the assay using the Perkin-Elmer Janus workstation. The odorant plates were spun down to remove air bubbles, and placed on the FDSS6000 plate loader, and 5 μL of odorant solution was applied to the cell plate on the FDSS6000. Ca^2+ increase was monitored with fluorescence at 525 nm by excitation at 485 nm.

OR8/OR7 = OR8/OR7 (Anopheles gambiae, UniProt Q7PUT5+Q7QCC7); test: Ca2+-imaging of stable HEK293T cell line OR8/OR7; conditions: for inhibition at 4 µM: HEK-293T, read-out: Percent Inhibition OR8 OR7; for IC50: Table B, read-out: IC50 OR8
Procedure: (§3) Full-length cDNAs for mosquito (Anopheles gambiae) odorant receptor (OR1, OR2, OR7, OR8, OR28), and fly (Drosophila melanogaster) odorant receptor (Or47a, Or83b), mouse TRP channel (TRPM8), and mouse serotonin receptor (5HT3) were obtained and subcloned into mammalian expression vectors. The following mammalian expression vectors were used:
(§4) Stable cell lines OR1/OR7, OR2/OR7, OR8/OR7, OR10/OR7, OR28/OR7 and TRPM8 were generated from HEK293T cells. HEK293T-based cell lines were cultured in DMEM supplemented with these additional antibiotics: 6 μg/mL blasticidin and 1 μg/mL puromycin, with the exception of the TRPM8 cell lines, which was cultured in DMEM supplemented with 1 μg/mL puromycin.
(§5) Cells were trypsinized and split into 35 mm dishes one day before transfection. Confluent cells (60-70%) in 35 mm dishes were transfected with 1 μg of insect OR(X) plasmids in pME18s-bla and 1 μg of OR7-pME18s-puro using lipofectamine 2000. For Anopheles odorant receptors, two plasmids were co-transfected into HEK cells: the ligand-specific receptor (OR1, OR2, OR8, OR28) and the corresponding olfactory co-receptor: OR7. Cell lines containing TRPM8 were transfected with single plasmid.
as §1, with “plates.” for “plates. The last two columns of the plate (32 wells total) were used as control wells as follows: • negative control with HBSS buffer (16 wells) • positive control with ligands (16 wells).”
as §2

OR10/OR7 = OR10/OR7 (Anopheles gambiae, UniProt B5U0U7+Q7QCC7); test: Ca2+-imaging of stable HEK293T cell line OR10/OR7; conditions: for inhibition at 4 µM: HEK-293T, read-out: Percent Inhibition OR10 OR7
Procedure: as §4
After one day of incubation, the transfected cells were transferred into 10 cm dishes with DMEM containing antibiotics as follows: • 0.5 μg/mL of blasticidin for OR1/OR7, OR2/OR7, OR8/OR7, OR10/OR7, OR28/OR7 • 0.2 μg/mL of puromycin for TRPM8.
as §1, with “plates.” for “plates. The last two columns of the plate (32 wells total) were used as control wells as follows: • negative control with HBSS buffer (16 wells) • positive control with ligands (16 wells).”
as §2

TRP channel (TRPM8) = biological target: T2, TRP channel (TRPM8) (Mus musculus, UniProt Q8R4D5); test: Ca2+-imaging of stable HEK293T cell line TRPM8; conditions: HEK-293T, read-out: Percent Inhibition TRPM8
T2 construct: Full-length cDNAs for mosquito (Anopheles gambiae) odorant receptor (OR1, OR2, OR7, OR8, OR28), and fly (Drosophila melanogaster) odorant receptor (Or47a, Or83b), mouse TRP channel (TRPM8); expressed in transfected cells
Procedure: as §3, §4, §5
as §1, with “plates.” for “plates. The last two columns of the plate (32 wells total) were used as control wells as follows: • negative control with HBSS buffer (16 wells) • positive control with ligands (16 wells).”
as §2

OR28/OR7 = OR28/OR7 (Anopheles gambiae, UniProt A0A1S4GFY3+Q7QCC7); test: Ca2+-imaging of stable HEK293T cell line OR28/OR7; conditions: for inhibition at 4 µM: HEK-293T, read-out: Percent Inhibition OR28 OR7
Procedure: as §3, §4, §5
as §1, with “plates.” for “plates. The last two columns of the plate (32 wells total) were used as control wells as follows: • negative control with HBSS buffer (16 wells) • positive control with ligands (16 wells).”
as §2

Sequence of OR10/OR7 (Q7QCC7 whole entry): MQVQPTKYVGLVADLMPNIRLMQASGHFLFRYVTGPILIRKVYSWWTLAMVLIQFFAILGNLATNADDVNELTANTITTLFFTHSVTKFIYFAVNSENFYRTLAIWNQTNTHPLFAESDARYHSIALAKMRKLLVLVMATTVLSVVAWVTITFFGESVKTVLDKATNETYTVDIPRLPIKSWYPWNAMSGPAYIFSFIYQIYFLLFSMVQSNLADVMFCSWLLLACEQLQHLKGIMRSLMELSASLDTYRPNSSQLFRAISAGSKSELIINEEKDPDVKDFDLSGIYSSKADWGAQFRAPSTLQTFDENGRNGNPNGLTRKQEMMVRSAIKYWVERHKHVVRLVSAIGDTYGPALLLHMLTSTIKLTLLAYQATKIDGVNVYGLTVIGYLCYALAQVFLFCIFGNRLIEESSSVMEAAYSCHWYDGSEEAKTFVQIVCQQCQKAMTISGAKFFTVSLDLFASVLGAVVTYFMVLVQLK
Sequence of OR10/OR7 (B5U0U7 entry or part of it): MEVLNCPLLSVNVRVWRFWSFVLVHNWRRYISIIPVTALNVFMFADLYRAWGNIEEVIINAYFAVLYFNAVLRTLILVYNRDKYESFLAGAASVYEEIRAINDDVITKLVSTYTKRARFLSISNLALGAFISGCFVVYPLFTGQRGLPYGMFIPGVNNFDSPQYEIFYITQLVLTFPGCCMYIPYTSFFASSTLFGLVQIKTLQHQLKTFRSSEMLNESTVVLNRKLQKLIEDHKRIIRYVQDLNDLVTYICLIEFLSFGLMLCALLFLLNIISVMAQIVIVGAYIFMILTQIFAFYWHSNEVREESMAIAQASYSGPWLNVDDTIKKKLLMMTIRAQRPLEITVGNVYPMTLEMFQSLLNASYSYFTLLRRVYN
Sequence of OR8/OR7 (Q7QCC7 whole entry): as the sequence (Q7QCC7 whole entry) above
Sequence of OR8/OR7 (Q7PUT5 entry or part of it): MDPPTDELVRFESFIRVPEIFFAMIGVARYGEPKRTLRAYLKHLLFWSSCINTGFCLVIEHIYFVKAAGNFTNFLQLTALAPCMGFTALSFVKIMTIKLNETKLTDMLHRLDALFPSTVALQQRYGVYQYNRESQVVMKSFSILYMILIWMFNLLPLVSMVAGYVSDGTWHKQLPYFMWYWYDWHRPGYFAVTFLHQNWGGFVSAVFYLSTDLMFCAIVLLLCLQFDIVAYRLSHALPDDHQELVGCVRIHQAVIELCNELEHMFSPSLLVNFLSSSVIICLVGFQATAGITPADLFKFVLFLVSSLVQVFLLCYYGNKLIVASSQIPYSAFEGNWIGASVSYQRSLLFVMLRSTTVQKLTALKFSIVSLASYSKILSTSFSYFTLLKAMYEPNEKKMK
T2 sequence (Q8R4D5 whole entry): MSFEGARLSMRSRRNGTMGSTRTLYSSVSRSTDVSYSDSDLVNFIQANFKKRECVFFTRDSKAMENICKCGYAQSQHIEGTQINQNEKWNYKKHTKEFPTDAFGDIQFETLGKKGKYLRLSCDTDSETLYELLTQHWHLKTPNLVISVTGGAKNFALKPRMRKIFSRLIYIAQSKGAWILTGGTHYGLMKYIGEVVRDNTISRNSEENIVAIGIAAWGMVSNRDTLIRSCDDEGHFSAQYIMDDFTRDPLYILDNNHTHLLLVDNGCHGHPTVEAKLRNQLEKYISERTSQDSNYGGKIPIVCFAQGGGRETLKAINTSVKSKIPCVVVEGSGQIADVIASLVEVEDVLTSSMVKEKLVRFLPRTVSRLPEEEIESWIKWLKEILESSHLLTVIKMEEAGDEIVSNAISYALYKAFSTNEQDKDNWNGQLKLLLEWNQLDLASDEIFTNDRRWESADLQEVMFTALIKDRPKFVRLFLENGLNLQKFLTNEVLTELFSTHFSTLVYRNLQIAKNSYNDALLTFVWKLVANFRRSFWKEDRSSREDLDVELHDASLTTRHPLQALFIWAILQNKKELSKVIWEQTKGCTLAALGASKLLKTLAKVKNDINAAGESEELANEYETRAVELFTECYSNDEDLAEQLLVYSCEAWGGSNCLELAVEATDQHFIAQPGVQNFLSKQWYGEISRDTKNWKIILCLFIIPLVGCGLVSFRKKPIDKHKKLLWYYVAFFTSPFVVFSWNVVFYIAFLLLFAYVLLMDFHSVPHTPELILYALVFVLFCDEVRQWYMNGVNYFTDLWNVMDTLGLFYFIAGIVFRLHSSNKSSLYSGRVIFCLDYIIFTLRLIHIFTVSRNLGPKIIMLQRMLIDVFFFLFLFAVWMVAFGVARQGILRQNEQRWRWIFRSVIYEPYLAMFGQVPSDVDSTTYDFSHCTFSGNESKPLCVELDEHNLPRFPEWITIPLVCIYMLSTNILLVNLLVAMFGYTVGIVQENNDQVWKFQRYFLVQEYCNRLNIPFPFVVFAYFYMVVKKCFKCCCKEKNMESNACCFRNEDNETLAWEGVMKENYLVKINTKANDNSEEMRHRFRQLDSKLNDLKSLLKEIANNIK
Sequence of OR28/OR7 (A0A1S4GFY3 entry or part of it): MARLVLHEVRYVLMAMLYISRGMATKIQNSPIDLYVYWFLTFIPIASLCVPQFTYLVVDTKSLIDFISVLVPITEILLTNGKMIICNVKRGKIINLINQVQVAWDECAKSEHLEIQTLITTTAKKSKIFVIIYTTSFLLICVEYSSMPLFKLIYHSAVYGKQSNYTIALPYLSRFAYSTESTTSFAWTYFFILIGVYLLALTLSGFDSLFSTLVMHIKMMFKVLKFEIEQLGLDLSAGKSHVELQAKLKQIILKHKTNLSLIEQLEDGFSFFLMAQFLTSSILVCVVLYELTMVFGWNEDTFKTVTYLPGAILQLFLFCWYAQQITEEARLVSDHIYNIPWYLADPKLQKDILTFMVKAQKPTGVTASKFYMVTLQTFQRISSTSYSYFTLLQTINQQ
Sequence of OR28/OR7 (Q7QCC7 whole entry): as the sequence (Q7QCC7 whole entry) above

Compound	inhibition at 4 µM (mOREG; compound applied at 4 μM) [%]	inhibition at 4 µM (OR8/OR7; compound applied at 4 μM) [%]	IC50 (OR8/OR7) [nM]	inhibition at 4 µM (OR10/OR7; compound applied at 4 μM) [%]	IC50 (OR10/OR7; Table B, read-out: IC50 OR10) [nM]	inhibition at 4 µM (TRP channel (TRPM8); compound applied at 4 μM) [%]	inhibition at 4 µM (OR28/OR7; compound applied at 4 μM) [%]	IC50 (OR28/OR7; Table B, read-out: IC50 OR28) [nM]	inhibition at 4 µM (mOREG) [%]	inhibition at 4 µM (OR8/OR7) [%]	IC50 (OR10/OR7) [nM]	inhibition at 4 µM (OR10/OR7) [%]	inhibition at 4 µM (TRP channel (TRPM8)) [%]	IC50 (OR28/OR7) [nM]	inhibition at 4 µM (OR28/OR7) [%]	IC50 (mOREG; Table B) [nM]
O=C(c1ccco1)N(Cc1ccco1)Cc1nccn1Cc1ccccc1F [RU-0047694]	< 25	51 to 74	100 to 1000	51 to 74	< 100	< 25	> 75	< 100								
O=C(c1cccnc1Cl)N1CCOC(COCc2c(Cl)cccc2Cl)C1 (stereo not drawn) [RU-0050372]	< 25	< 25		26 to 50		< 25	> 75	< 100								
O=C(NCCC(=O)N1CCOC(COCc2ccc(F)cc2Cl)C1)OCc1ccccc1 (stereo not drawn) [RU-0050344]	26 to 50	26 to 50		26 to 50		< 25	> 75	< 100								
COc1ccccc1CC(=O)N1CCOC(COc2ccc(C)cc2)C1 (stereo not drawn) [RU-0050390]	< 25	< 25		< 25		< 25	> 75	< 100								
COCCCN(Cc1c(-c2ccccc2)noc1N1CCC(C)CC1)C(=O)c1ccccc1F [RU-0036876]	26 to 50	51 to 74	> 1000	< 25		< 25	> 75	< 100								
C=CCN(Cc1nccn1Cc1ccccc1F)C(=O)C1CCCC1 [RU-0058964]	26 to 50	26 to 50		> 75	< 100	26 to 50	> 75	< 100								
Cc1ccc(-c2nnc(SCCCC(=O)N3CCN(C(=O)c4cccc(F)c4)C(C)C3)n2-c2ccc(C)cc2)cc1 (stereo not drawn) [RU-0071789]	26 to 50	< 25		> 75	< 100	< 25	> 75	< 100								
CC(C)CN(Cc1nccn1Cc1c(F)cccc1Cl)C(=O)c1ccc(F)cc1 [RU-0048054]	< 25	< 25		51 to 74	< 100	< 25	< 25	< 100								
CCN(CC)C(=O)Oc1ccc2c(ccn2Cc2ccc(Cl)cc2)c1NC(=O)C1CC1 [RU-0075475]									< 25	< 25	< 100	> 75	< 25	> 1000	> 75	
C=CCN(Cc1nccn1Cc1ccccc1C)C(=O)CC(C)C [RU-0058298]	26 to 50	< 25		> 75	< 100	26 to 50	> 75	< 100								
COc1ccc(-c2cc(-c3ccccc3)n(C(=O)CN3CCN(Cc4ccccc4)CC3)n2)cc1 [RU-0038795]	26 to 50	< 25		< 25		< 25	> 75	< 100								
C=CCN(Cc1nccn1Cc1ccc(Cl)c(Cl)c1)C(=O)c1ccccc1F [RU-0047955]	< 25	< 25		> 75	< 100	< 25	> 75	< 100								
O=C(c1ccco1)N(Cc1nccn1Cc1c(F)cccc1Cl)C1CC1 [RU-0048046]	< 25	< 25		51 to 74	< 100	< 25	> 75	< 100								
Cc1ccccc1C(=O)N[C@@H]1CCCCC1NC(=O)C1CCN(C(=O)C23CC4CC(CC(C4)C2)C3)CC1 (stereo partly drawn) [RU-0045351]	26 to 50	< 25		< 25		< 25	> 75	< 100								
O=C(CCC1CCN(C(=O)c2cccc(-n3cccn3)c2)CC1)Nc1ccccc1 [RU-0032465]	26 to 50	51 to 74	> 1000	< 25		26 to 50	> 75	< 100								
COCCNC(=O)c1ccc(CSc2nnc(-c3ccc(C)cc3)n2-c2ccccc2C)cc1 [RU-0053556]	26 to 50	26 to 50		51 to 74	> 1000	26 to 50	> 75	100 to 1000								
CCN(CC)C(=O)Oc1ccc2c(ccn2Cc2cccc(C)c2)c1NC(=O)CCCCC(=O)OC [RU-0075445]									< 25	< 25		< 25	< 25	< 100	> 75	
CCOC(=O)CCC(=O)N(CCc1ccccc1)CC(=O)Nc1cc(C(C)(C)C)nn1-c1ccccc1C [RU-0072462]	< 25	< 25		26 to 50		< 25	> 75	< 100								
CCN(CC)c1onc(-c2ccccc2)c1CN(CC1CCCO1)C(=O)c1ccc2c(c1)OCO2 (stereo not drawn) [RU-0036875]	51 to 74	51 to 74	> 1000	26 to 50		< 25	> 75	< 100								> 1000
Cc1c(C(=O)NCc2ccco2)cnn1-c1ccccc1 [RU-0047765]	< 25	< 25		51 to 74	< 100	26 to 50	> 75	< 100								
CCN(C)c1onc(-c2ccccc2)c1CN(CCCOC)C(=O)c1ccco1 [RU-0051926]	< 25	< 25		26 to 50		< 25	> 75	> 1000								
